Reference: publication PMC7613998, “Development of selective inhibitors of phosphatidylinositol 3-kinase C2α” (Nature Chemical Biology, 2022)

Key:
Experiment in all cases: biochemical
DYRK1B = DYRK1B (Homo sapiens, UniProt Q9Y463); parameters: SelectScreen Z'-LYTE purified kinase panel, per cent inhibition, mean of two points; details: (μM)=Km app
PIP5K1B = PIP5K1B (Homo sapiens, UniProt O14986); parameters: SelectScreen Adapta purified lipid kinase panel, 1 uM compound, 10 uM ATP, per cent inhibition; details: ATP=10; Technology=Adapta; 10 uM ATP
In short: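 Purified lipid kinases screened with inhibitors at 1 µM in the presence of 10 µM ATP; data are mean ± SD of two independent experiments.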

MKNK2 (MNK2) = MKNK2 (MNK2) (Homo sapiens, UniProt Q9HBH9); parameters: SelectScreen LanthaScreen kinase binding assay, per cent tracer displacement, mean of two points; details: tracer displacement
BRAF = BRAF (Homo sapiens, UniProt P15056); parameters: SelectScreen LanthaScreen kinase binding assay, per cent tracer displacement, mean of two points; details: tracer displacement
STK32C (YANK3) = STK32C (YANK3) (Homo sapiens, UniProt Q86UX6); parameters: SelectScreen LanthaScreen kinase binding assay, per cent tracer displacement, mean of two points; details: tracer displacement
MAP2K1 (MEK1) = MAP2K1 (MEK1) (Homo sapiens, UniProt Q02750); parameters: SelectScreen LanthaScreen kinase binding assay, per cent tracer displacement, mean of two points; details: tracer displacement
RAF1 (cRAF) Y340D Y341D = RAF1 (cRAF) Y340D Y341D (Homo sapiens, UniProt P04049, Y340D/Y341D); parameters: SelectScreen LanthaScreen kinase binding assay, per cent tracer displacement, mean of two points; details: tracer displacement
PI3KC2β = molecular target: T1, PI3KC2β (Homo sapiens, UniProt O00750); parameters: ADP-Glo lipid kinase assay with liver PI substrate, luminescence; details: read-out: PITCOIN3 (IC50)
T1 construct: gene PIK3C2B

Chain of RAF1 (cRAF) Y340D Y341D (P04049 whole entry Y340D/Y341D): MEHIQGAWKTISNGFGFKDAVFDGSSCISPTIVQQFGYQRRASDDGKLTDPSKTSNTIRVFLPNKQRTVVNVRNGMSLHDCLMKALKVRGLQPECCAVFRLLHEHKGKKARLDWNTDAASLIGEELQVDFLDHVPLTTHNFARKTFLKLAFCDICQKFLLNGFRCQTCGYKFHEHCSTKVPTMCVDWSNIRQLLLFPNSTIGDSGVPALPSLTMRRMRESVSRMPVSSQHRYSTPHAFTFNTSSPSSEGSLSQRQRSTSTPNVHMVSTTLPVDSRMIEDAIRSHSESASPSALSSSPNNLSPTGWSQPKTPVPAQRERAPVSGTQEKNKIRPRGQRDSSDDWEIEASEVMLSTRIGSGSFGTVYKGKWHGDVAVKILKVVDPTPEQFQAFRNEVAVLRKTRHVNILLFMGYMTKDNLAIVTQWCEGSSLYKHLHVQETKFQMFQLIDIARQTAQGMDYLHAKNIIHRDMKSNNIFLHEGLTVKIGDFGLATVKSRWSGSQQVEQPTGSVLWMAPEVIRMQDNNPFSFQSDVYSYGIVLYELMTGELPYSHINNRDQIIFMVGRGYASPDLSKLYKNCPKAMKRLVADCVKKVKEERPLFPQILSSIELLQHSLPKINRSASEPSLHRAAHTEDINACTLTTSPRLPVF
Chain of STK32C (YANK3) (Q86UX6 whole entry): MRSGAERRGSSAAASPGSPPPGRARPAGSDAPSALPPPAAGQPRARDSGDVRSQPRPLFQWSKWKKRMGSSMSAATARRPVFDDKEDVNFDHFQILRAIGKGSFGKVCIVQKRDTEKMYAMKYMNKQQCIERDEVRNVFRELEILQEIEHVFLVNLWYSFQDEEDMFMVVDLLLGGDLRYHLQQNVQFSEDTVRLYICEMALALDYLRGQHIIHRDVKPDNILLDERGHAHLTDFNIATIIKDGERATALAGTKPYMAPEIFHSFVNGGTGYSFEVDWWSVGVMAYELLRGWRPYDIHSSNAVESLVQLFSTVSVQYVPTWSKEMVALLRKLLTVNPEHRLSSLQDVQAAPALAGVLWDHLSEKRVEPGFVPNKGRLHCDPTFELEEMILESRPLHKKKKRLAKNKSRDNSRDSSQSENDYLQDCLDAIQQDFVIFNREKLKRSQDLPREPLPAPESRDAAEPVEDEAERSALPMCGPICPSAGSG
Chain of BRAF (P15056 whole entry): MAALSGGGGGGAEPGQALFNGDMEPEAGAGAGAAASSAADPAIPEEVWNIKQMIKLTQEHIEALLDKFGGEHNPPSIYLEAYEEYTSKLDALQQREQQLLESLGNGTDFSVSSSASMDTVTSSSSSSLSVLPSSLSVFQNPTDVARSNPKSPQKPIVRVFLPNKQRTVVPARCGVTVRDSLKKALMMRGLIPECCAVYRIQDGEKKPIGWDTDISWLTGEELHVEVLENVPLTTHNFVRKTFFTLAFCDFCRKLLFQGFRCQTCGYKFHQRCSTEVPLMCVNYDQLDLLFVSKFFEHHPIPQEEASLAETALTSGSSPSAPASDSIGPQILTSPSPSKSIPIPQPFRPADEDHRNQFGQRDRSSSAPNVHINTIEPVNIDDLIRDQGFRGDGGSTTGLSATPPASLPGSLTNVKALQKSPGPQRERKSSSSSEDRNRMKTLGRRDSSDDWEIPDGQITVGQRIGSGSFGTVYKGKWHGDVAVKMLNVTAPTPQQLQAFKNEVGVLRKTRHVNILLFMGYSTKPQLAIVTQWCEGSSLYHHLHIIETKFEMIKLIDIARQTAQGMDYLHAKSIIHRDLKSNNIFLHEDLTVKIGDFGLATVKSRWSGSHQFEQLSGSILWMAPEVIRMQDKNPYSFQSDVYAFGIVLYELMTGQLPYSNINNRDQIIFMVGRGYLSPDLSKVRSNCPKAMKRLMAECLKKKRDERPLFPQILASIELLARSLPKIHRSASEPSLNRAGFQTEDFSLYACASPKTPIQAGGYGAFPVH
Chain of DYRK1B (Q9Y463 whole entry): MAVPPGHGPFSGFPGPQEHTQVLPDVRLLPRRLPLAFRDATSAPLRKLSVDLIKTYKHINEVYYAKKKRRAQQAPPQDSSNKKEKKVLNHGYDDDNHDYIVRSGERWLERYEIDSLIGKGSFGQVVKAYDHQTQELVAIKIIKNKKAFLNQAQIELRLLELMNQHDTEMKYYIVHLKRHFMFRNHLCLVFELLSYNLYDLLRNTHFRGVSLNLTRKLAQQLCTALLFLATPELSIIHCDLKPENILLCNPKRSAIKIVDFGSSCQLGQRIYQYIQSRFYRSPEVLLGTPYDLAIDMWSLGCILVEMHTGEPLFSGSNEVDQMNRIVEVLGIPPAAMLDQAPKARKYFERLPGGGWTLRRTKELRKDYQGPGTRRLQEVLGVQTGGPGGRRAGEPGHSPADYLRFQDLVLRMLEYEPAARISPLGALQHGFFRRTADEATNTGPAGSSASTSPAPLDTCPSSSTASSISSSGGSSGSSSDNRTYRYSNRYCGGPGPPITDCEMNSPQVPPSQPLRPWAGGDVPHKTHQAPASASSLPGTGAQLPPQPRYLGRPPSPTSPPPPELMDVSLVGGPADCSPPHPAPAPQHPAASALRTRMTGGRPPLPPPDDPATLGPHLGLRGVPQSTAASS
Chain of MKNK2 (MNK2) (Q9HBH9 whole entry): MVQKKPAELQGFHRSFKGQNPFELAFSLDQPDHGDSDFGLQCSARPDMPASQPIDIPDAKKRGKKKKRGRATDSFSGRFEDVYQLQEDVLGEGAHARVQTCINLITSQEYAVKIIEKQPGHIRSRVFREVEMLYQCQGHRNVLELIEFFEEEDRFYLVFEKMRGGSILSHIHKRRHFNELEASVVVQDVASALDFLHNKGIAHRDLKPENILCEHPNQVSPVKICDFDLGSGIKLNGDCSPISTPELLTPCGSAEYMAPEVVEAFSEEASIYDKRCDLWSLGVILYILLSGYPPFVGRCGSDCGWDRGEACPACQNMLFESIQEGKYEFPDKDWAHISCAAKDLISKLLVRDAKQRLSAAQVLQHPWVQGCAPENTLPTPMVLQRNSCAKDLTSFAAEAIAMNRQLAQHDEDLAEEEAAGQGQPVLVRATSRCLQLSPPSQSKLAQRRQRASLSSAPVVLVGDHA
Chain of MAP2K1 (MEK1) (Q02750 whole entry): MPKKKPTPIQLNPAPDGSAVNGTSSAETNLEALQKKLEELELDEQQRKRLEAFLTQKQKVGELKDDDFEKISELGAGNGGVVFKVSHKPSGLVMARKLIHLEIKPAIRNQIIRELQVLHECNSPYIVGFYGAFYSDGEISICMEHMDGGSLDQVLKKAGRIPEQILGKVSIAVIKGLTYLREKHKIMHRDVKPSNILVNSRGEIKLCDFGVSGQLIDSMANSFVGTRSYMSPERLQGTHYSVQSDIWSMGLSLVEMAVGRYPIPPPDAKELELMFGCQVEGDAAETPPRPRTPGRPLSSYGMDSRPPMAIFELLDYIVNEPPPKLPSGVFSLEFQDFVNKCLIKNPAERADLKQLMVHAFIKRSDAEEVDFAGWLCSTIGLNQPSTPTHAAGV
Chain of PIP5K1B (O14986 whole entry): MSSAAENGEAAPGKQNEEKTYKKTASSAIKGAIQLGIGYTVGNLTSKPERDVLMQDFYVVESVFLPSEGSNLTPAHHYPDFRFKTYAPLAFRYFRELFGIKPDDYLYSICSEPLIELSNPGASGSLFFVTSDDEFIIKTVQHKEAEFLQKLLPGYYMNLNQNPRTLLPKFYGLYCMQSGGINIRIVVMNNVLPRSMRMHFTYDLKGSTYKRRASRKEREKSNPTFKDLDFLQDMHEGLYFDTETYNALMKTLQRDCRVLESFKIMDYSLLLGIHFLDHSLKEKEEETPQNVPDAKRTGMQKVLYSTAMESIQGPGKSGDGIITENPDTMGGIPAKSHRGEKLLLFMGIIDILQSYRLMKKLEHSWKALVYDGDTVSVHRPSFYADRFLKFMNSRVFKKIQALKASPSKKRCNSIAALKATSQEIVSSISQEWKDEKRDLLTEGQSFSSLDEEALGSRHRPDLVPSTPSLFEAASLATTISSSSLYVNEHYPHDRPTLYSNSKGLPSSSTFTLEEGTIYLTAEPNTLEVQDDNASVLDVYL

inhibition at 1 µM (DYRK1B) | inhibition at 3 µM (DYRK1B) | inhibition at 10 µM (DYRK1B) | inhibition at 1 µM (PIP5K1B) | inhibition at 1 µM (MKNK2 (MNK2)) | inhibition at 3 µM (MKNK2 (MNK2)) | inhibition at 10 µM (MKNK2 (MNK2)) | inhibition at 1 µM (BRAF) | inhibition at 3 µM (BRAF) | inhibition at 10 µM (BRAF) | inhibition at 1 µM (STK32C (YANK3)) | inhibition at 3 µM (STK32C (YANK3)) | inhibition at 10 µM (STK32C (YANK3)) | inhibition at 1 µM (MAP2K1 (MEK1)) | inhibition at 3 µM (MAP2K1 (MEK1)) | inhibition at 10 µM (MAP2K1 (MEK1)) | inhibition at 1 µM (RAF1 (cRAF) Y340D Y341D) | inhibition at 3 µM (RAF1 (cRAF) Y340D Y341D) | inhibition at 10 µM (RAF1 (cRAF) Y340D Y341D) | IC50 (PI3KC2β) | SMILES
-3.1% | -1.26% | -0.107% | 5% | -2.8% | -3.55% | -10.1% | -3.95% | 1.69% | 0.837% | -7% | -1.98% | -5.28% | -0.281% | 2.33% | -0.179% | -5.58% | -2.49% | -0.882% |  | O=C(CSc1nc2nccnc2c(=O)n1CCc1ccccc1)Nc1nccs1 [compound 1, PITCOIN1]
-3% | -3.02% | -2.65% |  | -4.48% | 1.13% | -10.9% | 6.15% | 7.18% | 9.11% | 8.19% | -2.39% | -8.61% | -0.643% | 0.136% | -2.2% | -1.02% | 3.96% | 3.33% | > 10 µM | CS(=O)(=O)Nc1cccc(-c2csc(NC(=O)CSc3nc4nccnc4c(=O)n3CCc3ccccc3)n2)c1 [compound 3, PITCOIN3]
 |  |  | -1% |  |  |  |  |  |  |  |  |  |  |  |  |  |  |  |  | O=C(CSc1nc2nccnc2c(=O)n1CCc1ccccc1)Nc1nc(-c2cccc(O)c2)cs1 [compound 2, PITCOIN2]
